Values quoted from earlier work in US20210393559A1, “Compositions and Methods of Use of Beta-Hydroxy-Beta-methylbutyrate (HMB) for Improving Muscle Mass, Strength and Muscular Function Without Exercise” (Metabolic Technologies, LLC, priority 2020, published 2021).

Assays:
[1] = target: T1, 1-alpha, 25-Vitamin D hydroxylase (Homo sapiens, UniProt O15528); conditions: human vascular smooth muscle
T1 sequence (O15528 1-508): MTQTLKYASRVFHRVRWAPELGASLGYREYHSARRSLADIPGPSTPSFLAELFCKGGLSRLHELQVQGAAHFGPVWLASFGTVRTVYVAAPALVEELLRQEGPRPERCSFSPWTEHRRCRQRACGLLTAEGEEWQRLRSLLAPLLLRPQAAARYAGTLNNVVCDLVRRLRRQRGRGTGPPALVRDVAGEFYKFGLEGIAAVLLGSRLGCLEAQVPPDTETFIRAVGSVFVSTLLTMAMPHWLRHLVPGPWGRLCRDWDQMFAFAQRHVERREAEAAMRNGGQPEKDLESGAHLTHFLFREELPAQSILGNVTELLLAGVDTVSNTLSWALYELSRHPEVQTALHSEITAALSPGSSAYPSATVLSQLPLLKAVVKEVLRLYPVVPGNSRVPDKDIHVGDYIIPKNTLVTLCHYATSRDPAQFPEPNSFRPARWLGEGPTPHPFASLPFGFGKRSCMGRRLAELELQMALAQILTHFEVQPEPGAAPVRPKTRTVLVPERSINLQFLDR

[2] = healthy young or old adults
[3] = after HMB is fed

| Km [1] | Compound | side effects [2] | loss of HMB to urine [3] |
| --- | --- | --- | --- |
| 25 ng/mL | C=C1CC[C@H](O)C/C1=C/C=C1\CCC[C@]2(C)[C@@H]([C@H](C)CCCC(C)(C)O)CC[C@@H]12 [25OH-VitD3] |  |  |
|  | β-hydroxy-β-methylbutyrate [HMB] | no side effects | 20-50% |
